The text below walks through data of patent US20250152613A1, “COMPOSITIONS AND METHODS FOR COVID-19 TREATMENT” (101 THERAPEUTICS LTD., priority 2022, published 2025).

For data set [1], the system named is COVID-19 patients. The conditions noted are these: diabetics; RECOVERY trial (Rayman et al. 2021); cited from earlier work.
For data set [2], the system named is bleomycin-induced PF mice model. Description: bleomycin-induced pulmonary fibrosis (PF) mice model. In kind it is in vivo, C57BL/6 mice. The source says:
Post COVID-19 pulmonary fibrosis (PF) is defined as the presence of persistent and different fibrotic tomographic changes, often combined with impairment in pulmonary function tests. The pathogenesis of post-COVID-19 PF is partially known and likely multifactorial. Excessive production of reactive oxygen species and non-protective mechanical ventilation are potential triggers for post-COVID-19 PF. To explore the beneficial effect of compound 1 in pulmonary fibrosis, a bleomycin-induced PF mice model was utilized. Bleomycin is known for its ability to induce lung injury resulting in an acute inflammatory response, and the inflammatory phase is followed by fibrotic changes. In this model, direct administration of bleomycin to the lungs decreases survival of treated mice, due to vast pulmonary damage. The study was performed in 5 treatment groups of C57BL/6 mice (n=10-12 per group) and included early or late treatment with compound 1 (1 mg/mouse), early treatment with dexamethasone (DEX) in an amount of 0.45 mg/mouse, vehicle, and naïve control groups. Early treatment was initiated on day 1, on the same day as bleomycin administration. Late treatment was initiated on day 14. The test items were injected in the vehicle, dexamethasone and Compound 1 early treatment groups, on days 1, 2, 3, 7, 14, 21 and 28. In the late treatment group, Compound 1 was administered on days 14, 15, 16, 21, 28 and 31. The test items were injected intravenously through the tail vein after pulmonary fibrosis model induction (bleomycin was induced by intratracheal administration of bleomycin (3.5 U/kg)). Animals were monitored for morbidity, mortality, body weight, and clinical signs. Selected clinical signs (i.e., physical appearance, activity, ability to respond to external stimulus, eyes, and respiration quality) were scored to provide a clinical score. Cytokine levels in BALF (Day 33) and serum (Days 17 & 32) were determined.

The conditions of data set [3]: according to the literature; cited from earlier work.
Data set [4] deals with moderate COVID-19 patients. Briefly: Phase II/Phase III study of Compound 1 Vs Dexamethasone for moderate COVID-19 with Standard of Care. In kind it is in vivo, human. The conditions noted are these: expected. On the procedure:
A prospective, randomized, multicenter, parallel group, double-blind, adaptive Phase II/Phase III study to evaluate safety and efficacy of Compound 1 Vs Dexamethasone for moderate COVID-19 disease along with Standard of Care is performed. The total duration of treatment administration for all patients is 3 days. The endpoints of the study are to evaluate efficacy of Compound 1 versus dexamethasone in moderate COVID-19 patients.
Compound 1 is contained in vials, each vial containing 20 mg of Compound 1 to be reconstituted in saline (0.9% NaCl) for bolus intravenous (IV) injection of 5 ml of solution.
The study is designed to determine rate of treatment-emergent adverse events (AE) and serious adverse events (SAE) including changes in clinical condition, vital signs and laboratory parameters.
Other endpoints of the study include: lowering mortality 28 or 60 days from administration; lowering rate of Intensive care units (ICU) admission; lowering mechanical ventilation or vasopressor therapy (28 days follow-up); improved clinical recovery rate [Time Frame: Day 10]-Proportion of patients who recovered within 10 days for which recovery is defined when the patient improves by 2 points in 11-point ordinal scale; an improvement in temperature, heart rate and oxygen saturation on days 1, 2, 4 and 7; decrease in viral load relative to admission levels according to RT-PCR from nasopharyngeal swab on days 3, 5 and 10; changes in levels of CRP, ferritin and CBC with differential; change in cytokine profile and lymphocyte sub-populations; and measurement of ACTH and morning cortisol levels.
Approximately 318 eligible patients are randomized in a 1:1 ratio to one of 2 treatment groups. Group 1: Compound 1, 20 mg per day+Standard of care. Group 2: Dexamethasone 6 mg+Standard of care.
Total expected study duration is approximately 60 days consisting of: a screening period: 7 days (Day-7 to Day 1) prior to randomization. Treatment period: Day 1 to Day 3. End of treatment assessment: Day 3 (for patients receiving Compound 1) and Day X (for Dexamethasone arm, based on investigator' discretion). […]

The test system of data set [5] is healthy volunteers.
The mark [6] stands for this setting: Compound 1 20 mg per day i.v. for 3 days + Standard of care vs Dexamethasone 6 mg.
Setting [7] is: 10-30 mg i.v., single and 3 day repeated.
The mark [8] stands for this setting: out of 23 possibly or probably related AEs.
[9] abbreviates: early treatment from day 1, i.v., compound 1 1 mg/mouse, DEX 0.45 mg/mouse, day 33, mean±standard deviation.
Where [10] appears, read: late treatment from day 14, i.v., 1 mg/mouse, day 33, mean±standard deviation.
[11] abbreviates: late treatment with Compound 1, day 33.

The structures appear in SMILES notation.

As to `C[C@@H]1C[C@H]2[C@@H]3CCC4=CC(=O)C=C[C@]4(C)[C@@]3(F)[C@@H](O)C[C@]2(C)[C@@]1(O)C(=O)CO` [DEX, dexamethasone, reference compound], the blood glucose levels result in data set [1] was “significantly elevated”. In data set [2] (mouse, in vivo, iv), the “% Fibrosis - Digital morphometry” value amounted to 6 ± 1.41%, the “Fibrosis score (MT)” value was 2.25 ± 0.5 and the “Pathological score (H&E)” value was 2.25 ± 0.5. For the same compound, the “most frequently reported adverse effect” value in data set [3] was “insomnia”.
Regarding `C[C@@H]1C[C@H]2[C@@H]3CCC4=C/C(=N/OCCCO[C@H]5O[C@H](CO)[C@@H](O)[C@H](O)[C@@H]5O)C=C[C@]4(C)[C@@]3(F)[C@@H](O)C[C@]2(C)[C@@]1(O)C(=O)CO` [Compound 1, 1-((8S,9R,10S,11S,13S,14S,16R,17R,E)-9-fluoro-11,17-dihydroxy-10,13,16-trimethyl-3-((3-(((2S,3S,4S,5S,6R)-3,4,5-trihydroxy-6-(hydroxymethyl)tetrahydro-2H-pyran-2-yl)oxy)propoxy)imino)-6,7,8,9,10,11,12,13,14,15,16,17-dodecahydro-3H-cyclopenta[a]phenanthren-17-yl)-2-hydroxyethan-1-one], in data set [4] (setting [6]), the “hyperglycemia relative to the dexamethasone group” value is on record as “lower” and the “recovery from moderate COVID-19 relative to the dexamethasone group” value is “enhanced”. Also, the mortality entry in data set [4] (Compound 1 20 mg per day i.v. for 3 days + Standard of care) is on record as “lower mortality”. Also, the “correlation between dose escalation and AEs frequency or severity” value in data set [5] (10, 20, 30 mg i.v.) was “no correlation”. In data set [5] (setting [7]), the “AE reported after exposure to Investigational Product” value came out at 29, the “AEs possibly related to the IP” value worked out at 13, the “AEs probably related to the IP” value is 10 and the “Dose-Limiting Toxicities (DLTs)” value is recorded as “No DLTs”. In data set [5] (setting [7]), the “Serious Adverse Events (SAEs) or severe AEs” value was “No Serious Adverse Events (SAEs) or severe AEs”; the cases of hyperglycemia result is recorded as “single case”; the “possibly or probably related AEs, total” value is on record as 23; the “post exposure AEs assessed as not related” value is 6. Further, in data set [5] (15 healthy participants, 10, 20, 30 mg single i.v. doses and 30 mg once a day for 3 days, includes 4 before exposure), the “total Adverse Events (AE) reported during the study” value was determined as 33. The “blood glucose changes after administration” value in data set [5] (4 hours post any of the 24 administrations) was “no changes”. The “severity of adverse events” value in data set [5] (all events) is “mild to moderate”. The “severity of the hyperglycemia event” value in data set [5] (one individual) is “mild and transient”. The “Blood Glucose after increase” value in data set [5] (one individual, increased from 97) is 105 mg/dL. In data set [5] (setting [8]), the “anxiety, number” value is on record as 1; the “anxiety, percent” value amounted to 4.34%; the “chemistry AEs, number” value came out at 8; the “chemistry AEs, percent” value came out at 34.8%. In data set [5] (setting [8]), the “fatigue reports, number” value turned out to be 2; the “fatigue reports, percent” value stood at 8.7%; the “hematology AEs, number” value turned out to be 6; the “hematology AEs, percent” value came to 26.1%. Besides, in data set [5] (setting [8]), the “hypertension, number” value is 1; the “hypertension, percent” value was 4.34%; the “insomnia, number” value was 2; the “insomnia, percent” value came out at 8.7%. Further, in data set [5] (setting [8]), the “noncardiac chest pain, number” value was found to be 1; the “noncardiac chest pain, percent” value was found to be 4.34%; the “skin rash, number” value is given as 2; the “skin rash, percent” value is listed as 8.7%. Further, in data set [2] (setting [9]), the “% Fibrosis - Digital morphometry” value came to 8.25 ± 1.26%, the “Fibrosis score (MT)” value came to 2.25 ± 0.5 and the “Pathological score (H&E)” value stood at 2.5 ± 0.58. In addition, in data set [2] (setting [10]), the “% Fibrosis - Digital morphometry” value is recorded as 5.2 ± 1.1%, the “Fibrosis score (MT)” value worked out at 2 ± 0.7 and the “Pathological score (H&E)” value is listed as 2 ± 0.7. For the same compound, the “mortality rate (FIG. 1)” value in data set [2] (late treatment from day 14, compared with DEX and Compound 1 early groups, similar to naïve) was “lower mortality rate”. The “overall effect on mortality and disease progression vs early treatment with DEX or Compound 1” value in data set [2] (late treatment with Compound 1) was “more profound effect”. For the same compound, in data set [2] (setting [11]), the “lung fibrosis by histopathological evaluation vs. vehicle control” value was “reduction in lung fibrosis”; the “pathological and fibrosis scores and percentage of lung fibrosis compared to DEX treatment” value was “slightly lower”.
